From USRE39707E1, “Camptothecin derivatives” (Catholic Healthcare West, priority 2001, dated 2007)

Key:
[1] = system: VM46; assay: Cell colony formation assay, VM46 cells; format: cell-based; settings: 72 hours drug exposure
Experimental: (§1) This example provides directions for growing cells and testing compounds of the invention for their effect on the growth of the cells. All cells were purchased from DCIDC Tumor Repository, NCI, NIH.
(§2) Four hundred cells (HCT 116, PC-3, NCI/ADR-RES: human breast cancer cells) or five hundred cells (VM46) were plated in 60 mm Petri dishes containing 2.7 ml of medium (modified McCoy's 5a medium) containing 10% fetal bovine serum and 100 units/ml penicillin and 100 mg/ml streptomycin. The cells were incubated in a CO2 incubator at 37° C. for 5 hours for attachment to the bottom of Petri dishes. Drugs were made fresh in medium at ten times the final concentration, and then 0.3 ml of this stock solution was added to the 2.7 ml of medium in the dish. The cells were then incubated with drugs for 72 hours at 37° C. At the end of the incubation the drug-containing media were decanted, the dishes were rinsed with 4 ml of Hank's Balance Salt Solution (HBSS), 5 ml of fresh medium was added, and the dishes were returned to the incubator for colony formation. The cell colonies were counted using colony counter after incubation for 7 days for HCT116 cells and PC-3 cells and 8 days for VM46 cells, respectively.
(§3) Values of ID50 (the drug concentration producing 50% inhibition of colony formation) may be determined for each tested compound. The directions described in this example may be used in other cells, such as DU-145.

[2] = system: PC-3; assay: Cell colony formation assay, PC-3 cells; format: cell-based, human; settings: 72 hours drug exposure
Experimental: as §1, §2, §3

[3] = system: HCT116; assay: Cell colony formation assay, HCT116 cells; format: cell-based, human; settings: 72 hours drug exposure
Experimental: as §1
as §2, with “The” for “Four hundred cells (HCT 116, PC-3, NCI/ADR-RES: human breast cancer cells) or five hundred cells (VM46) were plated in 60 mm Petri dishes containing 2.7 ml of medium (modified McCoy's 5a medium) containing 10% fetal bovine serum and 100 units/ml penicillin and 100 mg/ml streptomycin. The”

[4] = system: C3H/HeJ mice; settings: maximum tolerated dose at day 40, C3H/HeJ mice
Experimental: This example provides directions for performing in vivo toxicity tests of the compounds of the invention on C3H/HeJ mice.
Acute toxicities of the compounds of this invention are evaluated on C3H/HeJ mice (body weight 18-22 g). The MTD40 (maximum tolerated dose at day 40) values were determined by the standard procedure described by Gad and Chengelis (see, for example, “Acute Toxicology Testing,” 2nd Ed., Shayne O. Gad and Christopher P. Chengelis, pp. 186-195 (Academic Press)). In the consecutive type studies, 2 mice were dosed at low and moderate doses of 40 and 100 mg/kg. If no severe and irreversible toxicity (euthanasia is required) occurs at these doses, a new pair of animals was initiated at 180 mg/kg, which is 1.8 times higher than 100 mg/kg. Sequential dosages (about 3 doses on 3 pairs of animals, i.e. 2 mice for each drug dose) were increased by a factor of 1.8 until severe and irreversible toxicity (euthanasia is required) occurred. Then another pair of animals was initiated at the highest nonlethal dosage, and successive dosages were increased by a factor of 1.15. The result of this exercise was two dosages, one apparently nonlethal and the other lethal if severe and irreversible toxicity occurs and euthanasia is required, separated by a factor of 1.15. Six mice were dosed at each dosage. If no severe and irreversible toxicity occurred at the lower dosage and at least one with severe and irreversible toxicity occurred at the higher dose, then the lower dose was considered to be the MTD. The compounds of this invention were administered to C3H/HeJ mice by intraperitoneal injection. Drug toxicity was evaluated on mice checked daily for 45 days.

[5] = system: MTG-B mouse mammary Adenocarcinoma; assay: In vivo efficacy in C3H/HeJ mice bearing MTG-B tumors; settings: for T (Surviving days after treatment of MTG-B mouse mammary Adenocarcinoma In C3H/Hej mice): i.p., control mice survived 6 days; for CD/Taxol: ratio of extra days of survival with compound to extra days of survival with taxol, each compared to control; for T/C %: surviving days treated / surviving days control x 100%, control 6 days
Experimental: This example provides directions for performing in vivo efficacy tests of the compounds of the invention on C3H/HeJ mice bearing MTG-B tumors.
Studies on the compounds of this invention were performed on C3H/HeJ mice bearing […] tumors. […] Treatment was initiated at that time, with the first day of treatment designated as day 0 for calculation and plots. The mice were injected i.p. with thee drug dose levels (⅓, ½, 1×MTD) using both a single injection and the schedule of Q2D×3 (every 2 days for a total of 3 treatments at ⅓ MTD). Control groups of mice bearing 8 mm diameter tumors were treated with vehicle alone. […] When a tumor reached 1.5 g, the mouse bearing the tumor was euthanized. Surviving days measured from day 0 for mice treated with anticancer drugs (T) and surviving days measured from day 0 for control mice (C) were recorded. Tumor growth inhibition values (T/C %) were calculated using the formula T/C %=(surviving days of mice treated with an anticancer drug T/surviving days of control mice C)×100%, as shown in Table II.
The final right-hand column in Table II provides a ratio of the extra days of survival of mice treated with the compounds of the invention (compared to control) to the extra days of survival of mice treated with taxol (compared to control).

| Structure (SMILES) | In vitro efficacy: Survival (%) of cells line VM46 ([1]; 1 nM) [%] | In vitro efficacy: Survival (%) of cells line VM46 ([1]; 10 nM) [%] | In vitro efficacy: Survival (%) of cells line PC-3 ([2]; 1 nM) [%] | In vitro efficacy: Survival (%) of cells line PC-3 ([2]; 5 nM) [%] | In Vitro Efficacy: Survival (%) of HCT116 ([3]; 1 nM) [%] | In Vitro Efficacy: Survival (%) of HCT116 ([3]; 10 nM) [%] | In Vitro Efficacy: Survival (%) of HCT116 ([3]; 100 nM) [%] | In Vivo Toxicity MTD40 (ip, mg/kg) in C3H/Hej Mice [4] [mg/kg] | T (Surviving days after treatment of MTG-B mouse mammary Adenocarcinoma In C3H/Hej mice) [5] [days] | CD/Taxol [5] | T/C % [5] [%] |
| --- | --- | --- | --- | --- | --- | --- | --- | --- | --- | --- | --- |
| CC[C@@]1(OC(=O)COc2ccc(Br)cc2)C(=O)OCc2c1cc1n(c2=O)Cc2cc3ccccc3nc2-1 [Example 000315, Camptothecin-20-Oester of 4-bromophenoxyacetic acid] | 64.37 | 0 | 87.38 | 22.24 | 100 | 0 | 0 | >150 | 18 | 4 | 300 |
| CCC1(OC(=O)COc2c(F)c(F)c(F)c(F)c2F)C(=O)OCc2c1cc1n(c2=O)Cc2cc3ccccc3nc2-1 (centres unmarked) [Example 000410, Camptothecin-20-O-ester of 2,3,4,5,6-pentafluorophenoxyacetic acid] | 68.75 | 0 | 93.31 | 23.33 | 88.96 | 0 | 0 | 45 | 12 | 2.0 | 200 |
| CCC1(OC(=O)COc2ccccc2[N+](=O)[O-])C(=O)OCc2c1cc1n(c2=O)Cc2cc3ccccc3nc2-1 (centres unmarked) [Example 000411, Camptothecin-20-O-ester of 2-nitrophenoxyacetic acid] | 76.87 | 0 | 90.09 | 33.09 | 95.13 | 0 | 0 | >150 | 8 | .7 | 133 |
| CCC1(OC(=O)COc2cccc(Cl)c2Cl)C(=O)OCc2c1cc1n(c2=O)Cc2cc3ccccc3nc2-1 (centres unmarked) [Example 000412, Camptothecin-20-O-ester of 2,3-dichlorophenoxyacetic acid] | 50.72 | 0 | 83.00 | 8.68 | 81.36 | 0 | 0 | 100 | 17 | 3.7 | 283 |
| CCC1(OC(=O)COc2ccc(I)cc2)C(=O)OCc2c1cc1n(c2=O)Cc2cc3ccccc3nc2-1 (centres unmarked) [Example 000413, Camptothecin-20-Oester of 4-iodophenoxyacetic acid] | 73.61 | 0 | 89.51 | 33.64 | 87.62 | 0 | 0 | >150 | 18 | 4 | 300 |
| CCC1(OC(=O)COc2ccc(F)cc2)C(=O)OCc2c1cc1n(c2=O)Cc2cc3ccccc3nc2-1 (centres unmarked) [Example 000417, camptothecin-20-O-4-fluorophenoxyacetate] | 83.50 | 0 | 97.65 | 61.85 | 100 | 0 | 0 | >150 | 18 | 4 | 300 |
| CCC1(OC(=O)COc2ccc3c(c2)OCO3)C(=O)OCc2c1cc1n(c2=O)Cc2cc3ccccc3nc2-1 (centres unmarked) [Example 000419, Camptothecin-20-O-ester of 3,4-methylenedioxyphenoxyacetic acid] | 75.46 | 0 | 88.43 | 43.94 | 100 | 0 | 0 | 45 | 12 | 2.0 | 200 |
| CC[C@@]1(OC(=O)CO[C@@H]2C[C@H](C)CC[C@H]2C(C)C)C(=O)OCc2c1cc1n(c2=O)Cc2cc3ccccc3nc2-1 [Example 0002031, Camptothecin-20-O-ester of (−)-menthoxyacetic acid] | 74.84 | 0 | 100 | 69.44 | 100 | 0 | 0 | 100 | 12 | 2.0 | 200 |
| CC(=O)O[C@H]1C(=O)[C@@]2(C)[C@H]([C@H](OC(=O)c3ccccc3)[C@]3(O)C[C@H](OC(=O)[C@H](O)[C@@H](NC(=O)c4ccccc4)c4ccccc4)C(C)=C1C3(C)C)[C@]1(OC(C)=O)CO[C@@H]1C[C@@H]2O [Taxol, reference compound] | 80.59 | 70.82 | 82.80 | 41.36 | 86.40 | 0 | 0 | 40.6 | 9 | – | 150 |
